Data on 1 compound can be found in patent publication US20180303086A1, “An Antimicrobial Composition” (Conopco, Inc., d/b/a UNILEVER, priority 2015, published 2018).

This data set can be described thus: Solubility product and silver ion solubility of silver compounds in water at 25° C. The class given is physicochemical. The following applies: calculated from Ksp, [Ag+]=(Ksp·x)^(1/(x+1)). An excerpt: More particularly, silver ion solubility [Ag+], a value given in mol/L may be calculated using the formula: […]

Turning to `[Cl][Ag]` [Silver chloride], the “Silver Ion Solubility [Ag+]” value was 13 µM.
